# Source: US12692253B2, “Antimicrobial compounds and methods” (Curza Global, LLC, priority 2019, dated 2026)
# Read-outs that look alike come from different tables or passages of the source.
# Columns and labels:
# [1] = target: Rabbit Reticulocyte Lysate (eukaryotic protein synthesis); test: Rabbit reticulocyte lysate luciferase assay (inhibition of eukaryotic protein synthesis); format: biochemical; settings: read-out: Rabbit reticulocyte IC50 (μM/% inhib.)
# Summary of the method: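 In vitro translation of luciferase control RNA in nuclease-treated rabbit reticulocyte lysate with amino acid mixture, compounds in 2-fold serial dilution, 90 minutes at 30° C. Luminescence read after luciferase reagent; % inhibition relative to water no-inhibitor controls, with no-RNA background wells.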
# [2] = system: E. coli S30 extract (bacterial protein synthesis); test: E. coli S30 extract coupled transcription-translation luciferase assay (inhibition of bacterial protein synthesis); format: biochemical; settings: read-out: S30 IC50 (μM/% inhib.)
# Summary of the method: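 Coupled transcription-translation in E. coli S30 circular-DNA extract expressing luciferase from pBESTluc, with 8-point 2-fold compound dilutions; 1 hour at 37 °C, stopped at 4 °C. Luminescence read; % inhibition versus no-inhibitor wells, no-DNA wells as background.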
# E. faecalis (Ef) = test: Broth microdilution minimum inhibitory concentration (MIC), CLSI; format: cell-based; settings: Enterococcus faecalis, read-out: Ef + bicarb MIC
# Summary of the method: (§1)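 CLSI broth microdilution with modification: 8-point two-fold compound dilutions in CAMHB, CAMHB plus 6.25 or 25 mM sodium bicarbonate, or CAMHB plus 0–50% heat-inactivated human serum. Inoculum 5×10^4 CFU/well from log-phase cultures adjusted to 0.5 McFarland; triplicate wells.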
# P. aeruginosa (Pa) = test: as above; format: cell-based; settings: Pseudomonas aeruginosa, read-out: Pa MIC + bicarb
# Summary of the method: as §1
# E. coli (Ec) = test: as above; format: cell-based; settings: Escherichia coli, read-out: E. coli + bicarb MIC
# Summary of the method: as §1
# A. baumannn (Ab) = test: as above; format: cell-based; settings: read-out: Ab + bicarb MIC
# Summary of the method: as §1
# S. aureus (Sa) = test: as above; format: cell-based; settings: Staphylococcus aureus, read-out: Sa + bicarb MIC
# Summary of the method: as §1
# [3] = class by IC50 or % inhibition @ 1 μM
# [4] = growth medium supplemented with sodium bicarbonate
# [5] = growth medium with sodium bicarbonate
# [6] = A. baumannn, growth medium with sodium bicarbonate
Structure (SMILES),"IC50 [1, 3] [µM]","IC50 [2, 3] [µM]",MIC (E. faecalis (Ef); [4]) [µg/mL],MIC (P. aeruginosa (Pa); [4]) [µg/mL],MIC (E. coli (Ec); [4]) [µg/mL],MIC (A. baumannn (Ab); Acinetobacter baumannii) [µg/mL],MIC (S. aureus (Sa); [4]) [µg/mL],IC50 ([1]; % inhibition @ 1 μM) [µM],IC50 ([2]; % inhibition @ 1 μM) [µM],MIC (E. faecalis (Ef); [5]) [µg/mL],MIC (P. aeruginosa (Pa); [5]) [µg/mL],MIC (E. coli (Ec); [5]) [µg/mL],MIC (A. baumannn (Ab); [6]) [µg/mL],MIC (S. aureus (Sa); [5]) [µg/mL]
CC[C@@H](N)C1[C@H]2CN(CCc3ccc(-n4ccc(NC(=O)N5CCN(C(=O)C(C)(C)N)CC5)nc4=O)cc3)C[C@@H]12 (stereo partly drawn) [Compound 152],≥ 1,≥ 1,> 32,> 32,8 to 32,> 32,> 32,–,–,–,–,–,–,–
CCCC(Cc1ccc(-n2ccc(NC(=O)N3CCN(C(=O)C(C)(C)N)CC3)nc2=O)cc1F)N1C[C@@H]2[C@@H](CN)[C@@H]2C1 (stereo partly drawn) [Compound 153],≥ 1,< 0.5,< 8,8 to 32,< 8,< 8,< 8,–,–,–,–,–,–,–
CCC(Cc1ccc(-n2ccc(NC(=O)N3CCN(C(=O)C(C)(C)N)CC3)nc2=O)cc1F)N1C[C@@H]2[C@@H](CN)[C@@H]2C1 (stereo partly drawn) [Compound 154],≥ 1,< 0.5,< 8,< 8,< 8,< 8,< 8,–,–,–,–,–,–,–
CC(C)C(Cc1ccc(-n2ccc(NC(=O)N3CCN(C(=O)C(C)(C)N)CC3)nc2=O)cc1)N1C[C@@H]2[C@@H](CN)[C@@H]2C1 (stereo partly drawn) [Compound 155],≥ 1,< 0.5,< 8,< 8,< 8,< 8,< 8,–,–,–,–,–,–,–
CC(C)CC(Cc1ccc(-n2ccc(NC(=O)N3CCN(C(=O)C(C)(C)N)CC3)nc2=O)cc1)N1C[C@@H]2[C@@H](CN)[C@@H]2C1 (stereo partly drawn) [Compound 156],≥ 1,< 0.5,< 8,< 8,< 8,< 8,< 8,–,–,–,–,–,–,–
CC(Cc1ccc(-n2ccc(NC(=O)N3CCN(C(=O)C(C)(C)N)CC3)nc2=O)cc1)N1C[C@@H]2[C@@H](CN)[C@@H]2[C@H]1CO (stereo partly drawn) [Compound 157],≥ 1,< 0.5,8 to 32,> 32,< 8,> 32,< 8,–,–,–,–,–,–,–
CC(C)(N)C(=O)N1CCN(C(=O)Nc2ccn(-c3ccc(CCN4CC5(CNC5)C4)cc3)c(=O)n2)CC1 [Compound 160],≥ 1,≥ 1,> 32,> 32,< 8,> 32,> 32,–,–,–,–,–,–,–
CC(C)(N)C(=O)N1CCN(C(=O)Nc2ccn(-c3ccc(CCN4CCC5(CCNC5)C4)cc3)c(=O)n2)CC1 (stereo not drawn) [Compound 161],≥ 1,< 0.5,8 to 32,> 32,< 8,> 32,< 8,–,–,–,–,–,–,–
CC(Cc1ccc(-n2ccc(NC(=O)N3CCN(C(=O)C(C)(C)N)CC3)nc2=O)cc1)N1CC2(CNC2)C1 (stereo not drawn) [Compound 162],≥ 1,≥ 1,> 32,> 32,8 to 32,> 32,8 to 32,–,–,–,–,–,–,–
CC(Cc1ccc(-n2ccc(NC(=O)N3CCN(C(=O)C(C)(C)N)CC3)nc2=O)cc1)N1CCC2(CC1)CNC2 (stereo not drawn) [Compound 163],–,–,–,–,–,–,–,≥ 1,≥ 1,> 32,> 32,< 8,> 32,< 8
CN(Cc1ccc(-n2ccc(NC(=O)N3CCN(C(=O)C(C)(C)N)CC3)nc2=O)cc1)C12CCC(N)(CC1)C2 [Compound 164],–,–,–,–,–,–,–,≥ 1,< 0.5,< 8,> 32,< 8,8 to 32,< 8
CN(Cc1ccc(-n2ccc(NC(=O)N3CCN(C(=O)C(C)(C)N)CC3)nc2=O)cc1)C12CCC(N)(CC1)CC2 [Compound 165],–,–,–,–,–,–,–,≥ 1,0.5 to 1,< 8,> 32,< 8,8 to 32,< 8
CCN(Cc1ccc(-n2ccc(NC(=O)N3CCN(C(=O)C(C)(C)N)CC3)nc2=O)cc1)C12CCC(N)(CC1)C2 [Compound 166],–,–,–,–,–,–,–,≥ 1,< 0.5,< 8,> 32,< 8,8 to 32,< 8
CC(C)(N)C(=O)N1CCN(C(=O)Nc2ccn(-c3ccc(CNC45CCC(N)(CC4)CC5)cc3)c(=O)n2)CC1 [Compound 167],–,–,–,–,–,–,–,≥ 1,< 0.5,< 8,8 to 32,< 8,8 to 32,< 8
CC(C)(N)C(=O)N1CCN(C(=O)Nc2ccn(-c3ccc(CNC45CCC(N)(CC4)C5)cc3)c(=O)n2)CC1 [Compound 168],–,–,–,–,–,–,–,≥ 1,< 0.5,< 8,> 32,< 8,> 32,< 8
CN(Cc1ccc(-n2ccc(NC(=O)N3CCN(C(=O)C(C)(C)N)CC3)nc2=O)cc1)C12CC(N)(C1)C2 [Compound 169],–,–,–,–,–,–,–,≥ 1,≥ 1,> 32,> 32,8 to 32,> 32,> 32
CCN(Cc1ccc(-n2ccc(NC(=O)N3CCN(C(=O)C(C)(C)N)CC3)nc2=O)cc1)C12CC(N)(C1)C2 [Compound 170],–,–,–,–,–,–,–,≥ 1,< 0.5,> 32,> 32,< 8,> 32,> 32
CC(C)(N)C(=O)N1CCN(C(=O)Nc2ccn(-c3ccc(CNC45CC(N)(C4)C5)cc3)c(=O)n2)CC1 [Compound 171],–,–,–,–,–,–,–,≥ 1,≥ 1,> 32,> 32,8 to 32,> 32,> 32
CCN(Cc1ccc(-n2ccc(NC(=O)N3CCN(C(=O)C(C)(C)N)CC3)nc2=O)cc1)C12CCC(N)(CC1)CC2 [Compound 172],–,–,–,–,–,–,–,≥ 1,< 0.5,< 8,> 32,< 8,8 to 32,< 8
CC(C)(N)C(=O)N1CCN(C(=O)Nc2ccn(-c3ccc(CNC45CC(CN)(C4)C5)cc3)c(=O)n2)CC1 [Compound 173],–,–,–,–,–,–,–,≥ 1,≥ 1,> 32,> 32,< 8,> 32,> 32
CN(Cc1ccc(-n2ccc(NC(=O)N3CCN(C(=O)C(C)(C)N)CC3)nc2=O)cc1)C12CC(CN)(C1)C2 [Compound 174],–,–,–,–,–,–,–,≥ 1,≥ 1,8 to 32,> 32,< 8,> 32,< 8
CCN(Cc1ccc(-n2ccc(NC(=O)N3CCN(C(=O)C(C)(C)N)CC3)nc2=O)cc1)C12CC(CN)(C1)C2 [Compound 175],–,–,–,–,–,–,–,≥ 1,≥ 1,< 8,> 32,< 8,> 32,< 8
CC(Cc1ccc(-n2ccc(NC(=O)N3CCN(C(=O)C(C)(C)N)CC3)nc2=O)cc1)NC1CC2(CC(N)C2)C1 (stereo not drawn) [Compound 176],–,–,–,–,–,–,–,≥ 1,≥ 1,8 to 32,> 32,< 8,> 32,< 8
CC(C)(N)C(=O)N1CCN(C(=O)Nc2ccn(-c3ccc(CCNC4CC5(CC(N)C5)C4)cc3)c(=O)n2)CC1 (stereo not drawn) [Compound 177],–,–,–,–,–,–,–,≥ 1,≥ 1,8 to 32,> 32,< 8,> 32,< 8
CC(C)(N)C(=O)N1CCN(C(=O)Nc2ccn(-c3ccc(C[C@H](N)NN4C[C@@H]5[C@@H](N)[C@@H]5C4)cc3)c(=O)n2)CC1 [Compound 178],–,–,–,–,–,–,–,≥ 1,≥ 1,> 32,> 32,> 32,> 32,> 32
CC(C)(N)C(=O)N1CCN(C(=O)Nc2ccn(-c3ccc(CCCN4C[C@@H]5[C@@H](N)[C@@H]5C4)cc3)c(=O)n2)CC1 [Compound 179],–,–,–,–,–,–,–,≥ 1,≥ 1,> 32,> 32,8 to 32,> 32,< 8
CC(C)(N)C(=O)N1CCN(C(=O)Nc2ccn(-c3ccc(CCCN4CCC5(CC4)CC(N)C5)cc3)c(=O)n2)CC1 [Compound 180],–,–,–,–,–,–,–,≥ 1,≥ 1,> 32,> 32,< 8,> 32,8 to 32
